Results on three molecules are retold here after ChEMBL document CHEMBL1147799, “An integrated in silico 3D model-driven discovery of a novel, potent, and selective amidosulfonamide 5-HT1A agonist (PRX-00023) for the treatment of anxiety and depression” (J Med Chem, 2006).

The structures appear in SMILES notation. pEC50, pKi: −log10 of the molar value.

Series [1] can be described thus: Half life in human liver microsome at 5 uM. It is filed as ADME. The following applies: liver microsomes.
For the next series, the target named is D(2) dopamine receptor (Homo sapiens, UniProt P14416). The experiment in a line: Binding affinity to D2 receptor by radioligand binding assay.
In series [2] the target is T1, 5-hydroxytryptamine receptor 1A (Homo sapiens, UniProt P08908).
T1 sequence (P08908 whole entry): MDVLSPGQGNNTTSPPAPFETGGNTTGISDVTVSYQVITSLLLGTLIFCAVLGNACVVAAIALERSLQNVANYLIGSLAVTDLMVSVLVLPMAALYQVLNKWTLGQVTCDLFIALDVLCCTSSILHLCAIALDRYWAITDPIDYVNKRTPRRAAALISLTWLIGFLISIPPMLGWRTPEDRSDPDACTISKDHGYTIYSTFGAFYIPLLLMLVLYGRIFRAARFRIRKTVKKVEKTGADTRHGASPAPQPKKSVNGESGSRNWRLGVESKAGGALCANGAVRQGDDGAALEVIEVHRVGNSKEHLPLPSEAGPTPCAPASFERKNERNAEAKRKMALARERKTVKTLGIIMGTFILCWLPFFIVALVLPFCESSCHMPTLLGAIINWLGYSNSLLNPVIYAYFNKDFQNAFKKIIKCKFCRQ
Kind of series: Displacement of [3H]8-OH-DPAT from human 5HT1A receptor in HEK293 cells.

The nature of series [3]: Half life in Beagle dog at 3 mg/kg, po. Further details: dose 3 mg/kg, route oral; call rule not given here. It counts as ADME, organism-based, Canis lupus familiaris. The following applies: in vivo.
Series [4] is described as follows: Protein binding in human serum at 2 uM. The following applies: read-out: PPB (converted). It is filed as ADME, organism-based.
Series [5] is described as follows: Cmax in Sprague-Dawley rat at 3 mg/kg, po. The following applies: in vivo. Further details: dose 3 mg/kg, route oral. It counts as ADME, organism-based.
The target of a further series is Cytochrome P450 3A4 (Homo sapiens, UniProt P08684). The experiment in a line: Inhibition of human recombinant cytochrome P450 3A4. It counts as ADME. The following applies: recombinant enzyme.
The target in another series is Cytochrome P450 2C19 (Homo sapiens, UniProt P33261). Kind of series: Inhibition of human recombinant cytochrome P450 2C19. It counts as ADME. The following applies: recombinant enzyme.
The nature of series [6]: Half life in Sprague-Dawley rat at 3 mg/kg, po. It counts as ADME, organism-based. Further details: dose 3 mg/kg, route oral. The following applies: in vivo.
For series [7], the target named is T2, Alpha-2A adrenergic receptor (Rattus norvegicus) (UniProt P22909).
T2 sequence (whole entry): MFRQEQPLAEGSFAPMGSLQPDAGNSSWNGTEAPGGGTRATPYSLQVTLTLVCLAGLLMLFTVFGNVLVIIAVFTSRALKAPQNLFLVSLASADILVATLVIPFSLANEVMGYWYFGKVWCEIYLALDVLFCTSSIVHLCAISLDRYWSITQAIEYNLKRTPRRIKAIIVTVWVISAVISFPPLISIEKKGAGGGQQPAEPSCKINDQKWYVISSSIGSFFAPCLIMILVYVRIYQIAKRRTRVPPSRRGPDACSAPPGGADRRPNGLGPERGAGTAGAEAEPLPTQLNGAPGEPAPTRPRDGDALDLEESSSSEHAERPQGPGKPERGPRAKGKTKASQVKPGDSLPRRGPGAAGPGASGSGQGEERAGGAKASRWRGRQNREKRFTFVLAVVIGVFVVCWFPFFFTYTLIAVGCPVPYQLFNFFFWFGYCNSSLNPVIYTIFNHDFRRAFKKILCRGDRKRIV
Kind of series: Displacement of [3H]RX 821002 from Adrenergic alpha-2a receptor in rat cerebral cortex cells at 1 uM. It is filed as cell-based.

In series [8] the target is T1, 5-hydroxytryptamine receptor 1A. The experiment in a line: Activity against 5HT1A receptor by Gi-[35S]GTP-gamma-S binding assay. It counts as functional.
Series [9] is described as follows: Oral bioavailability in Beagle dog at 3 mg/kg, po and 1 mg/kg, iv. It is filed as ADME, organism-based, Canis lupus familiaris. The following applies: in vivo.
The target of series [10] is T3, Adrenergic receptor alpha-1 (Rattus norvegicus, UniProt P15823+P23944+P43140).
T3 sequence (P15823 whole entry): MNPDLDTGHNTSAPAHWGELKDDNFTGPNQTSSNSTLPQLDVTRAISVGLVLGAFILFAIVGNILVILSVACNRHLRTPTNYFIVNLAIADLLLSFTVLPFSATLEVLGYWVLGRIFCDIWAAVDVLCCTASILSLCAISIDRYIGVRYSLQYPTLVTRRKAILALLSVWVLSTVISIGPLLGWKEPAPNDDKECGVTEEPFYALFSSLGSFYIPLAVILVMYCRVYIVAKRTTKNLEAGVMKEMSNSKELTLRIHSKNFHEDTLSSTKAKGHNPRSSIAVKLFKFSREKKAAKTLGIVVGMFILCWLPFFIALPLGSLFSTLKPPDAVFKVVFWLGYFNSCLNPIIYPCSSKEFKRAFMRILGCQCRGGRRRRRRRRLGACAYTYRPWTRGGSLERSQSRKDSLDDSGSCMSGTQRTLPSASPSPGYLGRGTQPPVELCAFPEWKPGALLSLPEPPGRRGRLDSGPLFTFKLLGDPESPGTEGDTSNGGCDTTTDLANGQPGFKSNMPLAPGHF
T3 sequence (P23944 whole entry): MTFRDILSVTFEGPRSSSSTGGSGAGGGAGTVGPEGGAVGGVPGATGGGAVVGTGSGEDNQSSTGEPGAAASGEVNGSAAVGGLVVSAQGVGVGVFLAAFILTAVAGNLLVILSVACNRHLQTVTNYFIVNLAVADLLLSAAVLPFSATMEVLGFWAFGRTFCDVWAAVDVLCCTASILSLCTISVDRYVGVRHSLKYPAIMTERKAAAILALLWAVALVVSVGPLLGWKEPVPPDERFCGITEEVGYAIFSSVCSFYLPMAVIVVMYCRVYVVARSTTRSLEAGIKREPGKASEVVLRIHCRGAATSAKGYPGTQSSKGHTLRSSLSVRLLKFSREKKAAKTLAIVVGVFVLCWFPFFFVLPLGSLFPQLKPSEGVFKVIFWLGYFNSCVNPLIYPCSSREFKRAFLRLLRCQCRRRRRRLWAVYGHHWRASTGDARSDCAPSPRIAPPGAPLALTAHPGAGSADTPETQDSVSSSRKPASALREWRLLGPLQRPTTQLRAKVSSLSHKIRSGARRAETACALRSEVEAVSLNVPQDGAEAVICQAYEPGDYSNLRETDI
T3 sequence (P43140 whole entry): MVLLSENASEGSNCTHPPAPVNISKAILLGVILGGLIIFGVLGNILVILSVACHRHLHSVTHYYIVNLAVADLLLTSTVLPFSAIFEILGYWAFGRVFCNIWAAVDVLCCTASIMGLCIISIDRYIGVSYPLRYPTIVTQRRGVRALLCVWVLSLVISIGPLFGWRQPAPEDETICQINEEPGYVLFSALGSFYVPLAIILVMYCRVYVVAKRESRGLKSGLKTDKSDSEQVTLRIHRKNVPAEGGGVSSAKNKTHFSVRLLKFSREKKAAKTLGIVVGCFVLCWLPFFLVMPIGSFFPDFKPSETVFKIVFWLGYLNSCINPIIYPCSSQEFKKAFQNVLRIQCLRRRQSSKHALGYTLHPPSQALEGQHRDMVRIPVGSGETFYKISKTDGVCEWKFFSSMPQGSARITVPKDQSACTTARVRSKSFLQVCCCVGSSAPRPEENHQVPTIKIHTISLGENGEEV
Kind of series: Displacement of [3H]prazosin from adrenergic alpha-1 receptor in rat cerebral cortex cells. It counts as cell-based.

Series [11] can be described thus: Cmax in Beagle dog at 3 mg/kg, po. It counts as ADME, organism-based, Canis lupus familiaris. Further details: dose 3 mg/kg, route oral. The following applies: in vivo.
Another series has as its target Cytochrome P450 1A2 (Homo sapiens, UniProt P05177). Kind of series: Inhibition of human recombinant cytochrome P450 1A2. The following applies: recombinant enzyme. It is filed as ADME.
Series [12] is described as follows: Oral bioavailability in Sprague-Dawley rat at 3 mg/kg, po and 1 mg/kg, iv. It counts as ADME, organism-based. The following applies: in vivo.
The target of the next series is Cytochrome P450 2C9 (Homo sapiens, UniProt P11712). Kind of series: Inhibition of human recombinant cytochrome P450 2C9. The following applies: recombinant enzyme. It counts as ADME.
For another series, the target named is Cytochrome P450 2D6 (Homo sapiens, UniProt P10635). Kind of series: Inhibition of human recombinant cytochrome P450 2D6. It is filed as ADME. The following applies: recombinant enzyme.
In series [13] the target is Adrenergic receptor alpha-1 (Rattus norvegicus) (UniProt P15823+P23944+P43140). The experiment in a line: Displacement of [3H]prazosin from Adrenergic alpha-1 receptor in rat cerebral cortex cells at 1 uM. It is filed as cell-based.
The nature of series [14]: Selectivity for adrenergic alpha-1 receptor over 5HT1A receptor.
Series [15] concerns the target Dopamine D2 receptor and serotonin 1a receptor (Homo sapiens) (UniProt P14416+P08908). The experiment in a line: Selectivity for D2 receptor over 5HT1A receptor. It counts as protein assay.
Series [16] is described as follows: Elimination half life in human. It counts as ADME, organism-based. The following applies: in vivo.
In series [17] the target is 5-hydroxytryptamine receptor 7 (Homo sapiens, UniProt P34969).
Description: Binding affinity to 5HT7 receptor by radioligand binding assay
Series [18] deals with T4, 5-hydroxytryptamine receptor 1A (Homo sapiens) (UniProt P08908).
T4 sequence (whole entry): T1 sequence (P08908 whole entry)
Kind of series: Activity against 5HT1A receptor relative to 5-HT by Gi-[35S]GTP-gamma-S binding assay. It is filed as functional.

In series [19] the target is 5-hydroxytryptamine receptor 2B (Homo sapiens, UniProt P41595). The experiment in a line: Binding affinity to 5HT2B receptor by radioligand binding assay.
The target in series [20] is Sodium-dependent serotonin transporter (Homo sapiens, UniProt P31645). The experiment in a line: Binding affinity to 5HT transporter by radioligand binding assay.
Series [21] deals with 5-hydroxytryptamine receptor 2A (Homo sapiens, UniProt P28223).
Description: Binding affinity to 5HT2A receptor by radioligand binding assay
For series [22], the target named is Alpha-2A adrenergic receptor (Rattus norvegicus, UniProt P22909). The experiment in a line: Displacement of [3H]RX 821002 from Adrenergic alpha-2a receptor in rat cerebral cortex cells. It counts as cell-based.

D(2) dopamine receptor, sequence (P14416 whole entry): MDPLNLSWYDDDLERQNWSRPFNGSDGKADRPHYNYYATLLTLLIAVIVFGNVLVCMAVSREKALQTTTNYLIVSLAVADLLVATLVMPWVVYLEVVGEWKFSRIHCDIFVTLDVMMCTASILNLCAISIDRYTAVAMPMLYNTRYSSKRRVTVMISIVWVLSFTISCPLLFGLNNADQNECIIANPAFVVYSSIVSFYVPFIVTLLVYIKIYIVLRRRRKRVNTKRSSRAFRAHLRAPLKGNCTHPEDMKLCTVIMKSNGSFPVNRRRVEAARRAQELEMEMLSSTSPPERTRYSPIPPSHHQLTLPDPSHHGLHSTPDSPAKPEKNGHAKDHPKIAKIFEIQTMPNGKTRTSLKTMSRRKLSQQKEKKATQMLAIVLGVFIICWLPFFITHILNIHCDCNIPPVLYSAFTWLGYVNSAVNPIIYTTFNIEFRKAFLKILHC
Cytochrome P450 2C19, sequence (P33261 whole entry): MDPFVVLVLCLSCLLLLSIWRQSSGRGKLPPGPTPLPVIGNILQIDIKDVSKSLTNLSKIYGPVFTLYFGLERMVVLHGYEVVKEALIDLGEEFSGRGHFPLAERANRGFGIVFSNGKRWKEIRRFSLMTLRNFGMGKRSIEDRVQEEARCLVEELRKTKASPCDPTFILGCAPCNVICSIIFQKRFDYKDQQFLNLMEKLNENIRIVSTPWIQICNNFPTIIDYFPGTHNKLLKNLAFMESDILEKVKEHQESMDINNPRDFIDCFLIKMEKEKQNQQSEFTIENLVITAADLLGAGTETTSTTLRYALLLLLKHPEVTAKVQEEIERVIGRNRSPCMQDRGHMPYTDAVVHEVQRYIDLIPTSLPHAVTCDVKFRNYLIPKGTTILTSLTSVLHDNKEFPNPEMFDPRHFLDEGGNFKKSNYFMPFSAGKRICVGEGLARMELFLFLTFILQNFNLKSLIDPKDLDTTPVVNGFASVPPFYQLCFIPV
5-hydroxytryptamine receptor 7, sequence (P34969 whole entry): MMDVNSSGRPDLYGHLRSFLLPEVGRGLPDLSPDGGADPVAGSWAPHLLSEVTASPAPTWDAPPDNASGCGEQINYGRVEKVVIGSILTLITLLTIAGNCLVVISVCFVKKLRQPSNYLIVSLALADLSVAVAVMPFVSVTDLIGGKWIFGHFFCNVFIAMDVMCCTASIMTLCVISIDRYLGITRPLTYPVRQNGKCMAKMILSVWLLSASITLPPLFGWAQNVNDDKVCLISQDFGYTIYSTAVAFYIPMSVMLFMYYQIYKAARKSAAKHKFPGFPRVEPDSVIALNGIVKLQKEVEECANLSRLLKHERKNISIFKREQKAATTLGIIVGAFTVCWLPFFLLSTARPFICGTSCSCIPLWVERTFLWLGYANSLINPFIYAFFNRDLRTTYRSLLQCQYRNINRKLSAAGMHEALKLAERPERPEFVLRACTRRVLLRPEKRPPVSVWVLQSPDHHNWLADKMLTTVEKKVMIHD
Cytochrome P450 2D6, sequence (P10635 whole entry): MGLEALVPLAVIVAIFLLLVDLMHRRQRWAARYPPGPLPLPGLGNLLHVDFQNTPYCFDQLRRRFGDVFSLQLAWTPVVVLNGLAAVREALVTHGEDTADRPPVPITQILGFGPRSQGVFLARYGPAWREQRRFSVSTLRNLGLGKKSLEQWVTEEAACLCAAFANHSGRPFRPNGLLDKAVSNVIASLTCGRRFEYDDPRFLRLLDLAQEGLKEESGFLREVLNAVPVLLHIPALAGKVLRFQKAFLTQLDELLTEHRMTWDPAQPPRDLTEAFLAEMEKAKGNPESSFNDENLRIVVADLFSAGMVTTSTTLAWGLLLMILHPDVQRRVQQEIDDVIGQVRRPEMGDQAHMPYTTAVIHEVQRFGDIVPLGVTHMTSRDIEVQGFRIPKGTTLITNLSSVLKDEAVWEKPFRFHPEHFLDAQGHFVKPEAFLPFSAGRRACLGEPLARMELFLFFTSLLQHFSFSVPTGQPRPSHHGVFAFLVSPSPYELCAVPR
5-hydroxytryptamine receptor 2A, sequence (P28223 whole entry): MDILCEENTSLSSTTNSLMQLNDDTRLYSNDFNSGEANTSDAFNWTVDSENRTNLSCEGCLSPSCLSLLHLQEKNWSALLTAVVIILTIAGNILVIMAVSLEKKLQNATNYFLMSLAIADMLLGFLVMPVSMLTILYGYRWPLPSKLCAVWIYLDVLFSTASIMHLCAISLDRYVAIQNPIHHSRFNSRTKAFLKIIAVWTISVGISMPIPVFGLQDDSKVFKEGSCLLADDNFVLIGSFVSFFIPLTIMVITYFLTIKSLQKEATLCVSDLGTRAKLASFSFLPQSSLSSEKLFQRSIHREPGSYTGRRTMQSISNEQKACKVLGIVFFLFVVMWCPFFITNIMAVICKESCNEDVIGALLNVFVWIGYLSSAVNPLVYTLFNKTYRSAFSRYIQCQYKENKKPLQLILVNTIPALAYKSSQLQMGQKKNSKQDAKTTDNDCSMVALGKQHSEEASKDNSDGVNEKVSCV
Cytochrome P450 2C9, sequence (P11712 whole entry): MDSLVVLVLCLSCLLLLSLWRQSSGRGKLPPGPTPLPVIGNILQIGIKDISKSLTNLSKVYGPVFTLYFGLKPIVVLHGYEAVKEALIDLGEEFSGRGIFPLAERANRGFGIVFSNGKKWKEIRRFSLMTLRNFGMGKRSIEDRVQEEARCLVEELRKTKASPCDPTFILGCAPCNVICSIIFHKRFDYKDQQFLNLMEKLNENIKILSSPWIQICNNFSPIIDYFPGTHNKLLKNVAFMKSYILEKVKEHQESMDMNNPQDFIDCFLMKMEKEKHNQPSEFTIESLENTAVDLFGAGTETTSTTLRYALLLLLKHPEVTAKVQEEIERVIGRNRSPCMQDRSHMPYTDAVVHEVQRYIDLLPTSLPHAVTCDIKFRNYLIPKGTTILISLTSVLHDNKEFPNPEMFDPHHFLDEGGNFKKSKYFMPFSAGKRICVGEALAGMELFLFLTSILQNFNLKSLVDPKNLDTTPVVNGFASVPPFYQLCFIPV
5-hydroxytryptamine receptor 2B, sequence (P41595 whole entry): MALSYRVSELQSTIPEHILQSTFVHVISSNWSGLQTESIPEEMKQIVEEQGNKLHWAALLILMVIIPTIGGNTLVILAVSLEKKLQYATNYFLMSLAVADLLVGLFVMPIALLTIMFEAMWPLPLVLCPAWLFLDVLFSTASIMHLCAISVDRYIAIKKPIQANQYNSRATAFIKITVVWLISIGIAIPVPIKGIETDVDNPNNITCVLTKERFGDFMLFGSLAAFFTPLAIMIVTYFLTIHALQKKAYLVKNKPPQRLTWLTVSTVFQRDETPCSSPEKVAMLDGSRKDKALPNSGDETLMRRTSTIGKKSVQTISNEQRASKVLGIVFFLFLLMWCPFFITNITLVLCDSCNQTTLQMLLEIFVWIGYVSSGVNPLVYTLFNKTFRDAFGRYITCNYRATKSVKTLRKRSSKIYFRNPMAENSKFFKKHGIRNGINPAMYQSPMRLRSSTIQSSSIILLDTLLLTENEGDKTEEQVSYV
Dopamine D2 receptor and serotonin 1a receptor (Homo sapiens), sequence (P14416 whole entry, looked up, one chain of several): as the sequence (P14416 whole entry) above
Sodium-dependent serotonin transporter, sequence (P31645 whole entry): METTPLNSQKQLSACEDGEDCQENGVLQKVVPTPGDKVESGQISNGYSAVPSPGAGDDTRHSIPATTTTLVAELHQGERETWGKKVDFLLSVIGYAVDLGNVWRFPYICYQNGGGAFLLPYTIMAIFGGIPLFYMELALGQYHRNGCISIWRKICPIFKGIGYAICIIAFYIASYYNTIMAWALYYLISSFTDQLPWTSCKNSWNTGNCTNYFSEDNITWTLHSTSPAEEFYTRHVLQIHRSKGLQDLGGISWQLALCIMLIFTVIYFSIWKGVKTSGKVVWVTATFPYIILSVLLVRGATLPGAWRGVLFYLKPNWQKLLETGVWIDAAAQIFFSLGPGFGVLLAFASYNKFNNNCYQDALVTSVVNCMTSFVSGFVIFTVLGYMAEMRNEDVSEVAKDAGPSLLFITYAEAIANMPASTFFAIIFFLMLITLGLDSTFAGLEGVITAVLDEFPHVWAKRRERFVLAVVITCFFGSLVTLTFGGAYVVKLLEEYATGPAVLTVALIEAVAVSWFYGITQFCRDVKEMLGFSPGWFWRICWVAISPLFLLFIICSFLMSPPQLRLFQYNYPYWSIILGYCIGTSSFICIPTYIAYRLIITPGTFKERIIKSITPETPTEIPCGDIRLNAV
Cytochrome P450 3A4, sequence (P08684 whole entry): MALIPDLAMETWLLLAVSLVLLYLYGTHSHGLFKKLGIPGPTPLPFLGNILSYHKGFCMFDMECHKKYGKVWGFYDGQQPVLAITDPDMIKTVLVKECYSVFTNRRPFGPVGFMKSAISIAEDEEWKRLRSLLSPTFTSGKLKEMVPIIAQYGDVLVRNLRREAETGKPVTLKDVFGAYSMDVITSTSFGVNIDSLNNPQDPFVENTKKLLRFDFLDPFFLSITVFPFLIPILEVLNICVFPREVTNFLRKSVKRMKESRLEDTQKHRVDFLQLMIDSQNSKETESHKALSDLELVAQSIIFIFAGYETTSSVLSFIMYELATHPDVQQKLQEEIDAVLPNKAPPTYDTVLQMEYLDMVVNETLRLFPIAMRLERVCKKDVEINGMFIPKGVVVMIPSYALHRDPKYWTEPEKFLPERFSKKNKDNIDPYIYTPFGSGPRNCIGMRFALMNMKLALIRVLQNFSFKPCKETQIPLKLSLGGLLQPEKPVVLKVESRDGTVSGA

With `CC(=O)Nc1cccc(N2CCN(CCCCNS(=O)(=O)CC(C)C)CC2)c1`, the half-life at 5 µM in [1] was over 1.5 h. For the same molecule, the values for the pKi (at D(2) dopamine receptor; in series [2]) were under 5.30 and 8.04, respectively. For the same molecule, the figures for the half-life in series [3] and in series [6] were 2.4 h and 3.5 h, respectively. Also, the fraction unbound at 2 µM in series [4] is 0.43. Also, the Cmax in [5] turned out to be 350 ng/mL; in series [11], 600 ng/mL. Moreover, the Inhibition entry at Cytochrome P450 3A4, on Cytochrome P450 2C19, at Cytochrome P450 1A2, on Cytochrome P450 2C9 and on Cytochrome P450 2D6 was “Not Active” throughout. In addition, the Activity in series [7] is 0%; in series [13], 5%. For the same molecule, the negative-log EC50 (pEC50) in series [8] is 7.22. Besides, the bioavailability was over 80% in series [9] and 50% in series [12]. The same molecule returned a Ki in [10] of over 5000 nM.
Consider `O=C1c2ccccc2S(=O)(=O)N1CCCCN1CCN(c2ncccn2)CC1` [IPSAPIRONE], for which the pKi at D(2) dopamine receptor was 6.96; in [2], 8.22. The Ratio Ki was 38 in series [14] and 18 in [15]. In series [10], the Ki is given as 229 nM. The molecule further had a half-life in series [16] of 2 h.
In the case of `COc1ccccc1N1CCN(CCCCNS(=O)(=O)c2ccc(C)cc2)CC1`, the pKi is 9.00 in [2]; 7.52 in series [17]; 7.28 in series [19]; 6.70 in series [20]; 6.31 in series [21]; 7.92 in [22]. In [18], this molecule gave an Activity of 65%. For the same molecule, the half-life in series [6] was 1 h. The pEC50 in [8] is 7.68. The inhibitory constant (Ki) in series [10] was determined as 6 nM. The molecule further showed a bioavailability in series [12] of 2%.
